Assays:
[1] = Skin penetration study, Franz diffusion apparatus, transport across human epidermis in vitro; assay type: in vitro ADME; settings: binary system with a cell-envelope disordering compound versus standard vehicle/solvent; heat-separated abdominal epidermis, about 31°C
Text: The following data illustrate the effects of incorporating 9-(2-hydroxyethoxymethyl) guanine into a standard vehicle/sol- vent versus the same pharmaceutical active used in a binary system with a cell-envelope disordering compound.
The above data reflect relative transport of 9-(2-hydroxyethoxymethyl) guanine across human epidermis in vitro.
In the above skin penetration studies, human skin, (heat- separated abdominal epidermis, taken at autopsy), was placed in a standard Franz diffusion apparatus (Crown Glass Co., Somerville, N.J.) in a horizontal position between a lower, capped diffusion cell and an upper, open cell. A normal saline solution was added to the lower diffusion cell, abutting the subcutaneous side of the skin, and the test composition comprising a solution of active drug in the carrier at indicated formulation was added to the diffusion cell abutting the epidermal side of the skin.
This cell assembly was kept in a constant-temperature room at about 31°C. At appropriate intervals, each diffusion cell assembly was opened and the diffusate from the cell abutting the subcutaneous side of the skin was withdrawn. Drug active in the diffusate was measured using standard analytical techniques. Each trial was run on a separate sample of human skin.

[2] = cited from earlier work

For Nc1nc2c(ncn2COCCO)c(=O)[nH]1 [9-(2-hydroxyethoxymethyl) guanine], the “Penetration (relative transport across human epidermis in vitro)” value [1] is given as “significantly enhanced”, the “solubility in lipophilic solvent systems” value ([2]; lipophilic solvent systems) is given as “almost totally insoluble” and the solubility in water ([2]; water) is given as “slightly soluble”.
